The record followed here is ChEMBL document CHEMBL5385881, “Design, synthesis, and discovery of Eudistomin Y derivatives as lysosome-targeted antiproliferation agents” (Eur J Med Chem, 2023).

In one data set the test system is MDA-MB-231. Briefly: Cytotoxicity against human MDA-MB-231 cells assessed as cell inhibition measured after 72 hrs by MTT assay. The following applies: MDA-MB-231, 72 h. The data set is classed as functional, cell-based.
A further data set has as its system SGC-7901. Briefly: Cytotoxicity against human SGC-7901 cells assessed as cell inhibition measured after 72 hrs by MTT assay. The data set is classed as functional, cell-based. The following applies: SGC-7901, 72 h.
Another data set concerns LS180. Nature of the data set: Cytotoxicity against human LS180 cells assessed as cell inhibition measured after 72 hrs by MTT assay. Type of data set: functional, cell-based. The settings on record: LS180, 72 h.
Another data set concerns A549. Briefly: Cytotoxicity against human A549 cells assessed as cell inhibition measured after 72 hrs by MTT assay. Type of data set: functional, cell-based. The following applies: A549, 72 h. Background: Tetrazolium assays rely on reduction of a dye to a coloured formazan, in cell work by metabolically active cells.
The next data set concerns HepG2. Briefly: Cytotoxicity against human HepG2 cells assessed as cell inhibition measured after 72 hrs by MTT assay. The data set is classed as functional, cell-based. The following applies: HepG2, 72 h.
Data set [1] can be described thus: Drug uptake in human MDA-MB-231 cells assessed as accumulation by measuring lysosome-specific fluorescent signals in presence of excess H1 at 1 uM incubated for 1 hrs by confocal laser-scanning microscopic analysis. The settings on record: mda-mb-231, 1 h. The data set is classed as ADME, cell-based.

What is called IC50 is the midpoint of a concentration-inhibition curve. Consider `O=c1[nH]cc(F)c(=O)[nH]1` [FLUOROURACIL], for which the IC50 is 67.5 µM in the data set on MDA-MB-231, 13.1 µM in the data set with SGC-7901, 3.4 µM in the data set with LS180 and 1.3 µM with A549.
With `O=C(c1ccccc1)c1nccc2c3ccccc3n(Cc3cccc(F)c3)c12`, the IC50 in the data set on MDA-MB-231 was 33.5 µM; in the data set on SGC-7901, 28.1 µM; in the data set with HepG2 it was 28.4 µM; in the data set on LS180, 20 µM; in the data set on A549 it was 31.6 µM. For the same molecule, the Drug uptake entry in data set [1] is reported as “Not Active”.
For the molecule `O=C(c1ccccc1)c1nccc2c3ccccc3n(Cc3ccc([N+](=O)[O-])cc3)c12`, the IC50 turned out to be 31.4 µM with MDA-MB-231; 7.1 µM in the data set on SGC-7901; 18.7 µM with HepG2; 4.4 µM with LS180; 10.2 µM in the data set on A549.
Taken in the same sequence, the figures for `Cc1cccc(Cn2c3ccccc3c3ccnc(C(=O)c4ccccc4)c32)c1` were 56.5 µM, 25.4 µM, 31.8 µM, 19 µM and 33.6 µM.
As for `O=C(c1ccc(OCc2ccccc2)cc1)c1nccc2c1[nH]c1ccccc12`, the IC50 with MDA-MB-231 is 11.2 µM; in the data set with SGC-7901 it was 55.1 µM; with HepG2 it was 203 µM; with LS180, 20.7 µM; in the data set with A549, 15.6 µM.
Taken in the same sequence, the figures for `Cn1c2ccccc2c2ccnc(C(=O)c3ccc(OCc4ccccc4)cc3)c21` were 19.8 µM, 40.2 µM, 62.4 µM, 33.6 µM and 34.2 µM.
As to `O=C(c1ccccc1)c1nccc2c1[nH]c1ccccc12`, the half-maximal inhibitory concentration (IC50) came out at 66.1 µM in the data set with MDA-MB-231; 345 µM in the data set with SGC-7901; 244 µM in the data set with HepG2; 258 µM in the data set on LS180; 74.3 µM in the data set with A549.
As to `O=C(c1ccc(O)cc1)c1nccc2c1[nH]c1ccccc12` [EUDISTOMIN Y1], the half-inhibitory concentration (IC50) in the data set with MDA-MB-231 is 129 µM; in the data set on SGC-7901, 119 µM; in the data set with HepG2, 126 µM; in the data set with LS180, 89.8 µM; with A549, 71.9 µM.
The matching figures for `Cc1cccc(Cn2c3ccccc3c3ccnc(C(=O)c4ccc(O)cc4)c32)c1`: 65.6 µM, 27.5 µM, 38.8 µM, 25.5 µM and 26.8 µM.
